# EP1709964A2, “A method of cosmetic depigmentation care by applying at least one aurone” (ENGELHARD LYON, priority 2005, dated 2006)
# Biological target: T1, Human tyrosinase (Homo sapiens, UniProt P14679)
# T1 construct: Normal human melanocytes (originating from abdominal plasty) are sown in a 24-well plate; endogenous in cells; host or cells: normal human melanocytes from abdominal plasty; donors of light, brown and black phototype
# T1 sequence (P14679 19-529): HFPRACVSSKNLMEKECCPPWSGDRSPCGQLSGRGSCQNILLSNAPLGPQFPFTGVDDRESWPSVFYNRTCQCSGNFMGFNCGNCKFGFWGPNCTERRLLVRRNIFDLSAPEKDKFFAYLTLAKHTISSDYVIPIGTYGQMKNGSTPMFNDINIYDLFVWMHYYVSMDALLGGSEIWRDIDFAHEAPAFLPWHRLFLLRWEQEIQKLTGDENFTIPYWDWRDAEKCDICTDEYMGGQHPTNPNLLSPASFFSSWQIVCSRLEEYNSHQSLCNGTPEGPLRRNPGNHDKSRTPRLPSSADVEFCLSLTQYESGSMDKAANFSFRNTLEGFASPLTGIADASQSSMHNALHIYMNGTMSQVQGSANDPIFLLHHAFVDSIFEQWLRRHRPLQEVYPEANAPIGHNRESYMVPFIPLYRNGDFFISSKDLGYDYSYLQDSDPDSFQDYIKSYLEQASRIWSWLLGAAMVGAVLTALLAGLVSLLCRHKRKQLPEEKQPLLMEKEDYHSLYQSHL
# Assay: Inhibition of human tyrosinase in a monolayer after 24 h application of the actives on normal human melanocytes (MBTH/L-Dopa, OD 490 nm/protein)
# Assay type: cell-based
# Conditions: 0.03%; model of Example 15
# Experimental: Normal human melanocytes (originating from abdominal plasty) are sown in a 24-well plate at the rate of 80,000 cells per well. They are cultivated up to confluence and the actives are applied for 24 hours in the culture media. After 24 hours, the media are removed and the melanocytes are picked up by mechanical action. An extraction is made by heat shock and the supernatants are then recovered and then incubated with MBTH (Sigma) and L-Dopa (Sigma).
# The compound obtained in Example 9b was tested on melanocytes originating from various donors but of light phototypes according to the method described in Example 15. […] Table 6 : Inhibition of tyrosinase by compound 9b on 4 different donors.
# The compound obtained in Example 9b is tested on cultures of melanocytes originating from 2 donors of brown phototypes and from one donor of negroid phototype. The method applied is that described in Example 15.
# A study is made with molecules known in the literature for their depigmenting activity. These molecules are applied to the model described in Example 15 so as to compare their efficiency with respect to the aurones described above.
row,SMILES,Inhibition (%)
1,"O=C1O[C@H]([C@@H](O)CO)C(O)=C1O [VitC, Vitamin C, reference compound]",-5.68%

# Same assay, conditions: 0.3%; model of Example 15
row,SMILES,Inhibition (%)
1,"O=C1O[C@H]([C@@H](O)CO)C(O)=C1O [VitC, Vitamin C, reference compound]",49.28%

# Same assay, conditions: 3%; model of Example 15
row,SMILES,Inhibition (%)
1,"O=C1O[C@H]([C@@H](O)CO)C(O)=C1O [VitC, Vitamin C, reference compound]",97.77%

# Same assay, conditions: 10^-4M; 24 hours
row,SMILES,"Inhibition of human tyrosinase after application on normal human melanocytes, percentage inhibition"
1,"O=C1/C(=C/c2ccccc2)Oc2cc(O)cc(O)c21 [Example 7, (Z)-2-Benzylidene-(4,6-dihydroxy) benzofuran-3(2H)-one]",3.37 ± 4.8%

# Same assay, conditions: 10^-4M; 24 hours; read-out: Inhibition of human tyrosinase after application on normal human melanocytes, percentage inhibition
row,inhibition at 100 µM,SMILES
1,0%,O=C1/C(=C/c2ccc(S(=O)(=O)O)cc2)Oc2cc(O)cc(O)c21 [Example 7e]
2,5.43%,CCCc1ccc(/C=C2\Oc3cc(O)cc(O)c3C2=O)cc1 [Example 7h]
3,0%,CC(C)c1ccc(/C=C2\Oc3cc(O)cc(O)c3C2=O)cc1 [Example 7i]
4,0%,CC(C)(C)c1ccc(/C=C2\Oc3cc(O)cc(O)c3C2=O)cc1 [Example 7k]
5,0%,CCc1ccccc1/C=C1\Oc2cc(O)cc(O)c2C1=O [Example 7l]
6,23.6%,"O=C1/C(=C/c2ccco2)Oc2cc(O)cc(O)c21 [Example 7m, (Z)-4,6-Dihydroxy-2-[(furan)methylene]benzofuran-3(2H)-one]"
7,28.5%,"CCc1ccc(/C=C2\Oc3cc(O)cc(O)c3C2=O)o1 [Example 7n, (Z)-4,6-Dihydroxy-2-[(5-ethylfuran)methylene]benzofuran-3(2H)-one]"
8,13.6%,"Cc1cc(/C=C2\Oc3cc(O)cc(O)c3C2=O)oc1C [Example 7o, (Z)-4,6-Dihydroxy-2-[(4,5-dimethylfuran)methylene]benzofuran-3(2H)-one]"
9,35.2%,"O=C1/C(=C/c2cccs2)Oc2cc(O)cc(O)c21 [Example 7p, (Z)-4,6-Dihydroxy-2-[(thiophene)methylene]benzofuran-3(2H)-one]"
10,16.4%,"Cc1ccc(/C=C2\Oc3cc(O)cc(O)c3C2=O)s1 [Example 7q, (Z)-4,6-Dihydroxy-2-[(5-methylthiophene)methylene]benzofuran-3(2H)-one]"
11,13.8%,"CCc1ccc(/C=C2\Oc3cc(O)cc(O)c3C2=O)s1 [Example 7r, (Z)-4,6-Dihydroxy-2-[(5-ethylthiophene)methylene]benzofuran-3(2H)-one]"
12,26.4%,"Cc1cc(C)c(/C=C2\Oc3cc(O)cc(O)c3C2=O)[nH]1 [Example 7t, (Z)-4,6-Dihydroxy-2-[(3,5-dimethylpyrrole)methylene]benzofuran-3(2H)-one]"
13,5.25%,"CCOc1ccc(/C=C2\Oc3cc(O)cc(O)c3C2=O)cc1 [Example 9a, (Z)-4,6-Dihydroxy-2-(4'-ethoxybenzylidene)benzofuran-3(2H)-one]"
14,12.8%,O=C1/C(=C/c2ccccc2O)Oc2cc(O)cc(O)c21 [Example 9c]
15,3.92%,COc1cc(/C=C2\Oc3cc(O)cc(O)c3C2=O)ccc1O [Example 9d]

# The next lines start with the compound.
row,SMILES,inhibition at 100 µM
1,"O=c1cc(-c2ccc(O)cc2)oc2cc(O)cc(O)c12 [Apigenin, reference compound]",-59.1 ± 23%
2,"CCc1ccc(/C=C2\Oc3cc(O)ccc3C2=O)cc1 [Example 3a, (Z)-2-(4'-Ethyl)Benzylidene-6-Hydroxybenzofuran-3(2H)-one]",0%
3,"CCc1ccccc1/C=C1\Oc2cc(O)ccc2C1=O [Example 3b, (Z)-2-(2'-Ethyl)Benzylidene-6-Hydroxybenzofuran-3(2H)-one]",0%
4,"COc1cc(OC)c2c(c1)O/C(=C\c1ccc(S(=O)(=O)O)cc1)C2=O [Example 5e, (Z)-4,6-dimethoxy-2-(4'-sulfonatebenzylidene)benzofuran-3(2H)-one]",0%
5,"COc1cc(OC)c2c(c1)O/C(=C\c1ccc(S(=O)(=O)O)cc1S(=O)(=O)O)C2=O [Example 5f, (Z)-4,6-dimethoxy-2-(2',4'-disulfonatebenzylidene)benzofuran-3(2H)-one]",9.36%
6,"COc1cc(OC)c2c(c1)O/C(=C\c1ccco1)C2=O [Example 5m, (Z)-4,6-Dimethoxy-2-[(furan)methylene]benzofuran-3(2H)-one]",19.5%
7,"CCc1ccc(/C=C2\Oc3cc(OC)cc(OC)c3C2=O)o1 [Example 5n, (Z)-4,6-Dimethoxy-2-[(5-ethylfuran)methylene]benzofuran-3(2H)-one]",7.8%
8,"COc1cc(OC)c2c(c1)O/C(=C\c1cc(C)c(C)o1)C2=O [Example 5o, (Z)-4,6-Dimethoxy-2-[(4,5-dimethylfuran)methylene]benzofuran-3(2H)-one]",23.2%
9,"COc1cc(OC)c2c(c1)O/C(=C\c1cccs1)C2=O [Example 5p, (Z)-4,6-Dimethoxy-2-[(thiophene)methylene]benzofuran-3(2H)-one]",31.3%
10,"COc1cc(OC)c2c(c1)O/C(=C\c1ccc(C)s1)C2=O [Example 5q, (Z)-4,6-Dimethoxy-2-[(5-methylthiophene)methylene]benzofuran-3(2H)-one]",4.8%
11,"CCc1ccc(/C=C2\Oc3cc(OC)cc(OC)c3C2=O)s1 [Example 5r, (Z)-4,6-Dimethoxy-2-[(5-ethylthiophene)methylene]benzofuran-3(2H)-one]",11.9%
12,"COc1cc(OC)c2c(c1)O/C(=C\c1[nH]c(C)cc1C)C2=O [Example 5t, (Z)-4,6-Dimethoxy-2-[(3,5-dimethylpyrrole)methylene]benzofuran-3(2H)-one]",5.1%
13,"O=C1/C(=C/c2ccccc2)Oc2cc(O)cc(O)c21 [Example 7, (Z)-2-Benzylidene-(4,6-dihydroxy) benzofuran-3(2H)-one]",3.37%
14,"COc1ccc(/C=C2\Oc3cc(O)cc(O)c3C2=O)cc1 [Example 9, (Z)-4,6-Dihydroxy-2-(4-methoxybenzylidene)benzofuran-3(2H)-one]",10.7%

# Same assay, conditions: 10^-5M; 24 hours
row,SMILES,"Inhibition of human tyrosinase after application on normal human melanocytes, percentage inhibition"
1,"O=C1/C(=C/c2ccccc2)Oc2cc(O)cc(O)c21 [Example 7, (Z)-2-Benzylidene-(4,6-dihydroxy) benzofuran-3(2H)-one]",34.85 ± 3.04%

# Same assay, conditions: 10^-5M; 24 hours; read-out: Inhibition of human tyrosinase after application on normal human melanocytes, percentage inhibition
row,inhibition at 10 µM,SMILES
1,4.83%,O=C1/C(=C/c2ccc(S(=O)(=O)O)cc2)Oc2cc(O)cc(O)c21 [Example 7e]
2,26.9%,CCCc1ccc(/C=C2\Oc3cc(O)cc(O)c3C2=O)cc1 [Example 7h]
3,31.9%,CC(C)c1ccc(/C=C2\Oc3cc(O)cc(O)c3C2=O)cc1 [Example 7i]
4,25.1%,CC(C)(C)c1ccc(/C=C2\Oc3cc(O)cc(O)c3C2=O)cc1 [Example 7k]
5,6.1%,CCc1ccccc1/C=C1\Oc2cc(O)cc(O)c2C1=O [Example 7l]
6,6.4%,"O=C1/C(=C/c2ccco2)Oc2cc(O)cc(O)c21 [Example 7m, (Z)-4,6-Dihydroxy-2-[(furan)methylene]benzofuran-3(2H)-one]"
7,13.4%,"CCc1ccc(/C=C2\Oc3cc(O)cc(O)c3C2=O)o1 [Example 7n, (Z)-4,6-Dihydroxy-2-[(5-ethylfuran)methylene]benzofuran-3(2H)-one]"
8,4.5%,"Cc1cc(/C=C2\Oc3cc(O)cc(O)c3C2=O)oc1C [Example 7o, (Z)-4,6-Dihydroxy-2-[(4,5-dimethylfuran)methylene]benzofuran-3(2H)-one]"
9,15.3%,"O=C1/C(=C/c2cccs2)Oc2cc(O)cc(O)c21 [Example 7p, (Z)-4,6-Dihydroxy-2-[(thiophene)methylene]benzofuran-3(2H)-one]"
10,7%,"Cc1ccc(/C=C2\Oc3cc(O)cc(O)c3C2=O)s1 [Example 7q, (Z)-4,6-Dihydroxy-2-[(5-methylthiophene)methylene]benzofuran-3(2H)-one]"
11,0%,"CCc1ccc(/C=C2\Oc3cc(O)cc(O)c3C2=O)s1 [Example 7r, (Z)-4,6-Dihydroxy-2-[(5-ethylthiophene)methylene]benzofuran-3(2H)-one]"
12,0%,"Cc1cc(C)c(/C=C2\Oc3cc(O)cc(O)c3C2=O)[nH]1 [Example 7t, (Z)-4,6-Dihydroxy-2-[(3,5-dimethylpyrrole)methylene]benzofuran-3(2H)-one]"
13,19.9%,"CCOc1ccc(/C=C2\Oc3cc(O)cc(O)c3C2=O)cc1 [Example 9a, (Z)-4,6-Dihydroxy-2-(4'-ethoxybenzylidene)benzofuran-3(2H)-one]"
14,4.32%,O=C1/C(=C/c2ccccc2O)Oc2cc(O)cc(O)c21 [Example 9c]
15,20.2%,COc1cc(/C=C2\Oc3cc(O)cc(O)c3C2=O)ccc1O [Example 9d]

# More lines, now with the values behind:
row,SMILES,inhibition at 10 µM
1,"O=c1cc(-c2ccc(O)cc2)oc2cc(O)cc(O)c12 [Apigenin, reference compound]",-40.8 ± 7.68%
2,"O=c1cc(-c2ccccc2)oc2cc(O)cc(O)c12 [Chrysin, reference compound]",-6.1 ± 22.9%
3,"CCc1ccc(/C=C2\Oc3cc(O)ccc3C2=O)cc1 [Example 3a, (Z)-2-(4'-Ethyl)Benzylidene-6-Hydroxybenzofuran-3(2H)-one]",23.9%
4,"CCc1ccccc1/C=C1\Oc2cc(O)ccc2C1=O [Example 3b, (Z)-2-(2'-Ethyl)Benzylidene-6-Hydroxybenzofuran-3(2H)-one]",0%
5,"COc1cc(OC)c2c(c1)O/C(=C\c1ccc(S(=O)(=O)O)cc1)C2=O [Example 5e, (Z)-4,6-dimethoxy-2-(4'-sulfonatebenzylidene)benzofuran-3(2H)-one]",1.44%
6,"COc1cc(OC)c2c(c1)O/C(=C\c1ccc(S(=O)(=O)O)cc1S(=O)(=O)O)C2=O [Example 5f, (Z)-4,6-dimethoxy-2-(2',4'-disulfonatebenzylidene)benzofuran-3(2H)-one]",2.88%
7,"COc1cc(OC)c2c(c1)O/C(=C\c1ccco1)C2=O [Example 5m, (Z)-4,6-Dimethoxy-2-[(furan)methylene]benzofuran-3(2H)-one]",6.4%
8,"CCc1ccc(/C=C2\Oc3cc(OC)cc(OC)c3C2=O)o1 [Example 5n, (Z)-4,6-Dimethoxy-2-[(5-ethylfuran)methylene]benzofuran-3(2H)-one]",0%
9,"COc1cc(OC)c2c(c1)O/C(=C\c1cc(C)c(C)o1)C2=O [Example 5o, (Z)-4,6-Dimethoxy-2-[(4,5-dimethylfuran)methylene]benzofuran-3(2H)-one]",12.1%
10,"COc1cc(OC)c2c(c1)O/C(=C\c1cccs1)C2=O [Example 5p, (Z)-4,6-Dimethoxy-2-[(thiophene)methylene]benzofuran-3(2H)-one]",6.4%
11,"COc1cc(OC)c2c(c1)O/C(=C\c1ccc(C)s1)C2=O [Example 5q, (Z)-4,6-Dimethoxy-2-[(5-methylthiophene)methylene]benzofuran-3(2H)-one]",0%
12,"CCc1ccc(/C=C2\Oc3cc(OC)cc(OC)c3C2=O)s1 [Example 5r, (Z)-4,6-Dimethoxy-2-[(5-ethylthiophene)methylene]benzofuran-3(2H)-one]",2.1%
13,"COc1cc(OC)c2c(c1)O/C(=C\c1[nH]c(C)cc1C)C2=O [Example 5t, (Z)-4,6-Dimethoxy-2-[(3,5-dimethylpyrrole)methylene]benzofuran-3(2H)-one]",0%
14,"O=C1/C(=C/c2ccccc2)Oc2cc(O)cc(O)c21 [Example 7, (Z)-2-Benzylidene-(4,6-dihydroxy) benzofuran-3(2H)-one]",34.9%
15,"COc1ccc(/C=C2\Oc3cc(O)cc(O)c3C2=O)cc1 [Example 9, (Z)-4,6-Dihydroxy-2-(4-methoxybenzylidene)benzofuran-3(2H)-one]",14.1%

# Same assay, conditions: read-out: Inhibition of human tyrosinase after application on normal human melanocytes, percentage inhibition
SMILES,inhibition at 10 µM,inhibition at 100 µM
"COc1cc(OC)c2c(c1)O/C(=C\c1ccc[nH]1)C2=O [Example 5s, (Z)-4,6-Dimethoxy-2-[(pyrrole)methylene]benzofuran-3(2H)-one]",0%,13.7%
"O=C1/C(=C/c2ccc[nH]2)Oc2cc(O)cc(O)c21 [Example 7s, (Z)-4,6-Dihydroxy-2-[(pyrrole)methylene]benzofuran-3(2H)-one]",9.1%,22.8%
